Laboratory results taken from ChEMBL document CHEMBL5518191, “Camptothecin structure simplification elaborated new imidazo[2,1-b]quinazoline derivative as a human topoisomerase I inhibitor with efficacy against bone cancer cells and colon adenocarcinoma” (Eur J Med Chem, 2024).
The source made the active and inactive calls. No cut-off for these calls is given here.

Legend:
[1] = test system: SK-OV-3; test: Cytotoxicity against human SK-OV-3 cells incubated for 48 hrs by MTT assay; assay type: functional, cell-based; conditions: SK-OV-3, 48 h
[2] = test system: DU-145; test: Cytotoxicity against human DU-145 cells incubated for 48 hrs by MTT assay; assay type: functional, cell-based; conditions: DU-145, 48 h
[3] = test system: PC-3; test: Cytotoxicity against human PC-3 cells incubated for 48 hrs by MTT assay; assay type: functional, cell-based; conditions: PC-3, 48 h
[4] = test system: PANC-1; test: Cytotoxicity against human PANC-1 cells incubated for 48 hrs by MTT assay; assay type: functional, cell-based; conditions: PANC-1, 48 h
[5] = test system: MG-63; test: Cytotoxicity against human MG-63 cells incubated for 48 hrs by MTT assay; assay type: functional, cell-based
[6] = test system: MDA-MB-231; test: Cytotoxicity against human MDA-MB-231 cells incubated for 48 hrs by MTT assay; assay type: functional, cell-based; conditions: MDA-MB-231, 48 h
[7] = test system: HOS; test: Cytotoxicity against human HOS cells incubated for 48 hrs by MTT assay; assay type: functional, cell-based
[8] = test system: MCF7; test: Cytotoxicity against human MCF7 cells incubated for 48 hrs by MTT assay; assay type: functional, cell-based; conditions: MCF7, 48 h
[9] = test system: HCT-116; test: Cytotoxicity against human HCT-116 cells incubated for 48 hrs by MTT assay; assay type: functional, cell-based; conditions: HCT-116, 48 h
[10] = test system: SAOS-2; test: Cytotoxicity against human SAOS-2 cells incubated for 48 hrs by MTT assay; assay type: functional, cell-based; conditions: SAOS-2, 48 h
[11] = target: T1, DNA topoisomerase 1 (Homo sapiens) (UniProt P11387); test: Inhibition of human DNA topoisomerase 1 at 10 uM using supercoiled DNA as substrate incubated for 30 mins by EtBr staining based agarose gel electrophoresis method relative to control
T1 sequence (whole entry): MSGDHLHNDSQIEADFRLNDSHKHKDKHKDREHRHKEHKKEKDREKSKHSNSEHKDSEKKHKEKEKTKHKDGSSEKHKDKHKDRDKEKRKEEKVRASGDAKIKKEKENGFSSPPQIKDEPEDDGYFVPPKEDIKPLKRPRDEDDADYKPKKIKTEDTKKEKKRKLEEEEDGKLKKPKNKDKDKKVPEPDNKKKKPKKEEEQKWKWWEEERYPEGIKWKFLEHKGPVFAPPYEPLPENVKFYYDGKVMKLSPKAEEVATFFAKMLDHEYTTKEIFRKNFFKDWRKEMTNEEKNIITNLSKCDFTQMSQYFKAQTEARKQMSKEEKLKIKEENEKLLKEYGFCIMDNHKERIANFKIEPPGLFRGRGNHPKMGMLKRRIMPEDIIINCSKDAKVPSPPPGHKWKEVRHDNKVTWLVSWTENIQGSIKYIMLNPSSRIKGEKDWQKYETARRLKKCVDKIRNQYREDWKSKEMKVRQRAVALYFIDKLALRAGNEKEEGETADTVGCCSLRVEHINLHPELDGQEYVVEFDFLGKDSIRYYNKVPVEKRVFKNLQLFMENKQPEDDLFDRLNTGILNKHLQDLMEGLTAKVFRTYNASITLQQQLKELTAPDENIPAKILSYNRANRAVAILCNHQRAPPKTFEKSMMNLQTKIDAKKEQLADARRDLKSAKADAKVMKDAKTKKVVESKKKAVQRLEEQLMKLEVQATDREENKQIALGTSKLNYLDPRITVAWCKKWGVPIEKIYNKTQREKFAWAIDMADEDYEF

[12] = Acute toxicity in Swiss albino mouse assessed as change in AST level at 1.47 uM/kg, po administered for 14 days; assay type: organism-based; conditions: in vivo, 336 h, time 14 day
[13] = test system: HOS; test: Induction of apoptosis in human HOS cells assessed as fold increase in BAX gene expression at 1.47 uM incubated for 48 hrs by RT-qPCR analysis relative to positive control; assay type: functional
[14] = Acute toxicity in Swiss albino mouse assessed as change in GGT level at 1.47 uM/kg, po administered for 14 days; assay type: organism-based; conditions: in vivo, 336 h, time 14 day
[15] = Selectivity ratio of IC50 for human BJ cells to IC50 for human HOS cells
[16] = Acute toxicity in Swiss albino mouse assessed as change in ALT level at 1.47 uM/kg, po administered for 14 days; assay type: organism-based; conditions: in vivo, 336 h, time 14 day
[17] = test system: HOS; test: Induction of apoptosis in human HOS cells assessed as early apoptotic cells at 5 uM incubated for 48 hrs by Annexin-V FITC/PI staining based flow cytometry analysis (reference value: 0.46%); assay type: functional
[18] = test system: HOS; test: Induction of cell cycle arrest in human HOS cells assessed as accumulation of cells at G2/M phase after 48 hrs by flow cytometry analysis (reference value: 14.86 %); assay type: functional
[19] = Cytotoxicity against human BJ cells incubated for 48 hrs by MTT assay; assay type: toxicity, cell-based
[20] = test system: HOS; test: Induction of cell cycle arrest in human HOS cells assessed as accumulation of cells at G0/G1 phase after 48 hrs by flow cytometry analysis (reference value: 52.39 %); assay type: functional
[21] = test system: C-26; test: Antitumor activity against mouse C26 cells xenografted in BALB/c mouse assessed as decrease in tumor volume at 250 mg/kg, po after 35 days; assay type: functional, organism-based; conditions: time 35.0 day
[22] = test system: HOS; test: Cytotoxicity against human HOS cells cultured as 3D spheroids incubated for 120 hrs; assay type: functional, cell-based
[23] = test system: HOS; test: Induction of apoptosis in human HOS cells assessed as fold decrease in Her2 gene expression at 1.47 uM incubated for 48 hrs by RT-qPCR analysis relative to positive control; assay type: functional
[24] = Antitumor activity against mouse C26 cells xenografted in BALB/c mouse assessed as decrease in tumor volume at 250 mg/kg, po after 5 weeks; assay type: functional, C-26; design: scale not given: the % may be the effect or the level left
[25] = test system: HOS; test: Induction of apoptosis in human HOS cells assessed as fold increase in p53 gene expression at 1.47 uM incubated for 48 hrs by RT-qPCR analysis relative to positive control; assay type: functional
[26] = test system: HOS; test: Induction of cell cycle arrest in human HOS cells assessed as accumulation of cells at S phase after 48 hrs by flow cytometry analysis (reference value: 32.75 %); assay type: functional
[27] = test system: HOS; test: Induction of apoptosis in human HOS cells assessed as necrotic cells at 5 uM incubated for 48 hrs by Annexin-V FITC/PI staining based flow cytometry analysis (reference value: 1.51%); assay type: functional
[28] = Antitumor activity against mouse C26 cells xenografted in BALB/c mouse assessed as decrease in tumor volume at 250 mg/kg, po after 1 week; assay type: functional, C-26; design: scale not given: the % may be the effect or the level left; conditions: time 1 weeks
[29] = test system: HOS; test: Induction of apoptosis in human HOS cells assessed as late apoptotic cells at 5 uM incubated for 48 hrs by Annexin-V FITC/PI staining based flow cytometry analysis (reference value: 0.21%); assay type: functional
[30] = test system: HOS; test: Induction of apoptosis in human HOS cells assessed as fold decrease in BCL-2 gene expression at 1.47 uM incubated for 48 hrs by RT-qPCR analysis relative to positive control; assay type: functional
[31] = test system: HOS; test: Induction of cell cycle arrest in human HOS cells assessed as accumulation of cells at pre-G1 phase after 48 hrs by flow cytometry analysis (reference value: 2.18 %); assay type: functional
[32] = Acute toxicity in Swiss albino mouse assessed as change in AST level at 200 mg/kg, po administered for 14 days; assay type: organism-based; conditions: in vivo, 336 h, time 14 day
[33] = Acute toxicity in Swiss albino mouse assessed as change in GGT level at 200 mg/kg, po administered for 14 days; assay type: organism-based; conditions: in vivo, 336 h, time 14 day
[34] = Acute toxicity in Swiss albino mouse assessed as change in ALT level at 200 mg/kg, po administered for 14 days; assay type: organism-based; conditions: in vivo, 336 h, time 14 day
[35] = Homo sapiens, MG-63, 48 h, read-out: IC50

## CC[C@@]1(O)C(=O)OCc2c1cc1n(c2=O)Cc2cc3ccccc3nc2-1 [CAMPTOTHECIN]
[1]
  IC50: 0.241 µM
[2]
  IC50: 0.042 µM
[3]
  IC50: 0.234 µM
[4]
  IC50: 0.233 µM
[5]; [35]
  IC50: 0.046 µM
[6]
  IC50: 0.108 µM
[7]
  IC50: 0.049 µM
[8]
  IC50: 0.324 µM
[9]
  IC50: 0.051 µM
[10]
  IC50: 0.055 µM

## COc1cc2nc3n(c(=O)c2cc1OC)c(=O)c1cc2ccccc2c(=O)n13
[3]
  IC50: > 100 µM
[6]
  IC50: > 100 µM
[11]
  inhibition: Active
[7]
  IC50: > 100 µM
[8]
  IC50: > 100 µM

## O=c1/c(=C\c2ccccc2)n2c(=O)c3ccccc3nc2n1CCN1CCOCC1
[12]
  Activity: 19.5 U/L
[1]
  IC50: 3.48 µM
[13]
  fold change (FC): 6.143
[14]
  Activity: 10.3 U/L
[15]
  Ratio IC50: 2.89
[2]
  IC50: 3.81 µM
[16]
  Activity: 22 U/L
[17]
  Activity: 3.22%
[3]
  IC50: > 100 µM
[4]
  IC50: 19.1 µM
[18]
  Activity: 11.41%
[5]; [35]
  IC50: 17.9 µM
[19]
  IC50 at 48 h: 4.25 µM
[20]
  Activity: 61.08%
[6]
  IC50: 5.96 µM
[21]
  Activity: Active
[22]
  Activity: Active
[23]
  fold change (FC): 0.237
[11]
  inhibition: Active
[24]
  Activity: 75.36%
[25]
  fold change (FC): 4.907
[7]
  IC50: 1.47 µM
[26]
  Activity: 27.51%
[8]
  IC50: 56.4 µM
[9]
  IC50: 3.67 µM
[27]
  Activity: 12.81%
[28]
  Activity: 35.5%
[29]
  Activity: 23.58%
[10]
  IC50: 3.2 µM
[30]
  fold change (FC): 0.146
[31]
  Activity: 39.61%

## O=c1c2ccccc2nc2n1c(=O)c1cc3ccccc3c(=O)n12
[3]
  IC50: > 100 µM
[19]
  IC50 at 48 h: 128 µM
[6]
  IC50: 70.7 µM
[11]
  inhibition: Active
[7]
  IC50: > 100 µM
[8]
  IC50: > 100 µM

## O=C1NC(=S)n2c1cc1ccccc1c2=O
[3]
  IC50: > 100 µM
[19]
  IC50 at 48 h: 258 µM
[6]
  IC50: > 100 µM
[11]
  inhibition: Active
[7]
  IC50: > 100 µM
[8]
  IC50: 12.6 µM

## O=C1c2cc3ccccc3c(=O)n2C(=S)N1c1ccccc1
[3]
  IC50: > 100 µM
[6]
  IC50: > 100 µM
[11]
  inhibition: Active
[7]
  IC50: > 100 µM
[8]
  IC50: > 100 µM

## COc1cccc2c1C(=O)c1c(O)c3c(c(O)c1C2=O)C[C@@](O)(C(=O)CO)C[C@@H]3O[C@H]1C[C@H](N)[C@H](O)[C@H](C)O1 [DOXORUBICIN]
[1]
  IC50: 0.033 µM
[32]
  Activity: 31 U/L
[2]
  IC50: 0.072 µM
[3]
  IC50: 0.567 µM
[4]
  IC50: 0.086 µM
[5]; mg-63
  IC50: Not Active
[6]
  IC50: 1.15 µM
[33]
  Activity: 13.7 U/L
[34]
  Activity: 60 U/L
[7]
  IC50: 0.03 µM
[8]
  IC50: 0.01 µM
[10]
  IC50: 0.144 µM
